According to the NIST ThermoML archive (doi:10.1016/j.fluid.2008.07.003):

Conditions: Liquid

FCC(F)(F)F [1,1,1,2-tetrafluoroethane]
Conditions | vapor or sublimation pressure [kPa]
283.15 K | 416
293.15 K | 572.4
303.15 K | 771.5
313.15 K | 1017.5
323.15 K | 1318.8
333.15 K | 1681.6
343.15 K | 2114.5
353.15 K | 2629
